Reference: patent US5114935A, “Substituted 6-benzyl-2H-3,4,5,6-tetrahydro-(1,3)-oxazines” (Dr. Karl Thomae GmbH, priority 1989, dated 1992)
Counter-ions that a name gives are not always drawn. Like-named read-outs stand apart in the source and are kept apart here.

Tests used:
[1] = system: mechanically provoked coughing; test: Antitussive activity: mechanically provoked coughing in anaesthetised cats; type: in vivo, cat; details: for ED50: Felis catus, iv, read-out: ED50 after parallel adjustment (50% reduction in the number of coughs)
Experimental: The antitussive activity of the compound 6-(p-chlorobenzyl)-3,5,6-trimethyl-2H-3, 4, 5, 6-tetrahydro-oxazine (1,3)-hydrochloride was tested as follows:
33 male and female cats with a body weight of 3.4 to 4.5 kg were anaesthetised with pentobarbital-Na (45 mg/kg as an initial bolus i.p. and then, spread throughout the experiment, several times as required, 7.5 or 15 mg/kg i.v.). Care was taken to keep the animals at about stage 1 to 2 (Guedel) of the tolerance stage.
Coughing fits were provoked mechanically by the insertion of a plastic catheter with a rounded tip, diameter about 1.5 mm, into the trachea as far as the bifurcation. At each time of irritation, a series of 3 stimuli were carried out at intervals of about 30 seconds. The coughing fits were always provoked 5, 25 and 45 minutes after administration of the test substance or vehicle.
The test substance was administered as a solution in 0.9% NaCl solution through a catheter in the V. femoralis. The injected volume was not more than 0.5 ml/kg. Before administration of the substance, the effect of the vehicle was tested on each animal.
By linear regression analysis and linear covariance analysis, the ED50 value (50% reduction in the number of coughs) was determined after parallel adjustment (Table 2).

[2] = system: opiate receptors; test: Test of Binding to the Opiate Receptor: inhibition of 3H-diprenorphine binding; set-up: species or system rat; details: up to 100 μM; 0.5 nM 3H-diprenorphine

With `CC1CN(C)COC1(C)Cc1ccc(Cl)cc1` (stereo not drawn) [Active substance, 6-(p-chloro-benzyl)-3,5,6-trimethyl-2H-3,4,5,6-tetrahydro-oxazine(1,3)-hydrochloride] as the molecule, how does the “Percentage inhibition of coughing, MW ± SE” value ([1]; 0.5 mg/kg i.v., after 5 minutes, n=5) read?
The value was 26.7 ± 8.5%.

What about the “Percentage inhibition of coughing, MW ± SE” value ([1]; 0.5 mg/kg i.v., after 25 minutes, n=5) of the same molecule?
Its value is 16.7 ± 10.5%.

And the “Percentage inhibition of coughing, MW ± SE” value ([1]; 0.5 mg/kg i.v., after 45 minutes, n=5)?
Its value is 23.3 ± 10.0%.

What about the “Percentage inhibition of coughing, MW ± SE” value ([1]; 0.705 mg/kg i.v., after 5 minutes, n=5) of the same molecule?
The value was 23.3 ± 6.7%.

And the “Percentage inhibition of coughing, MW ± SE” value ([1]; 0.705 mg/kg i.v., after 25 minutes, n=5)?
Its value is 13.3 ± 6.2%.

And the “Percentage inhibition of coughing, MW ± SE” value ([1]; 0.705 mg/kg i.v., after 45 minutes, n=5)?
Its value is 13.3 ± 3.3%.

What about the “Percentage inhibition of coughing, MW ± SE” value ([1]; 1.0 mg/kg i.v., after 5 minutes, n=5) of the same molecule?
The value was 33.3 ± 18.3%.

What about the “Percentage inhibition of coughing, MW ± SE” value ([1]; 1.0 mg/kg i.v., after 25 minutes, n=5) of the same molecule?
The value was 40.0 ± 16.3%.

What about the “Percentage inhibition of coughing, MW ± SE” value ([1]; 1.0 mg/kg i.v., after 45 minutes, n=5) of the same molecule?
Its value is 36.7 ± 3.3%.

What about the “Percentage inhibition of coughing, MW ± SE” value ([1]; 1.41 mg/kg i.v., after 5 minutes, n=5) of the same molecule?
Its value is 63.3 ± 13.3%.

And the “Percentage inhibition of coughing, MW ± SE” value ([1]; 1.41 mg/kg i.v., after 25 minutes, n=5)?
Its value is 53.3 ± 16.2%.

What about the “Percentage inhibition of coughing, MW ± SE” value ([1]; 1.41 mg/kg i.v., after 45 minutes, n=5) of the same molecule?
The value was 50.0 ± 18.3%.

And the “Percentage inhibition of coughing, MW ± SE” value ([1]; 2.0 mg/kg i.v., after 5 minutes, n=5)?
Its value is 33.3 ± 17.5%.

And the “Percentage inhibition of coughing, MW ± SE” value ([1]; 2.0 mg/kg i.v., after 25 minutes, n=5)?
Its value is 53.3 ± 14.3%.

And the “Percentage inhibition of coughing, MW ± SE” value ([1]; 2.0 mg/kg i.v., after 45 minutes, n=5)?
Its value is 36.7 ± 17.0%.

And the “Percentage inhibition of coughing, MW ± SE” value ([1]; 2.83 mg/kg i.v., after 5 minutes, n=5)?
The value was 36.7 ± 14.3%.

What about the “Percentage inhibition of coughing, MW ± SE” value ([1]; 2.83 mg/kg i.v., after 25 minutes, n=5) of the same molecule?
The value was 43.3 ± 13.5%.

And the “Percentage inhibition of coughing, MW ± SE” value ([1]; 2.83 mg/kg i.v., after 45 minutes, n=5)?
The value was 40.0 ± 11.3%.

And the “Percentage inhibition of coughing, MW ± SE” value ([1]; 4.0 mg/kg i.v., after 5 minutes, n=5)?
Its value is 60.0 ± 11.3%.

And the “Percentage inhibition of coughing, MW ± SE” value ([1]; 4.0 mg/kg i.v., after 25 minutes, n=5)?
Its value is 63.3 ± 13.3%.

And the “Percentage inhibition of coughing, MW ± SE” value ([1]; 4.0 mg/kg i.v., after 45 minutes, n=5)?
The value was 46.7 ± 9.7%.

What about the “Percentage inhibition of coughing, MW ± SE” value ([1]; 5.64 mg/kg i.v., after 5 minutes, n=5) of the same molecule?
Its value is 70.0 ± 20.0%.

And the “Percentage inhibition of coughing, MW ± SE” value ([1]; 5.64 mg/kg i.v., after 25 minutes, n=5)?
Its value is 70.0 ± 20.0%.

What about the “Percentage inhibition of coughing, MW ± SE” value ([1]; 5.64 mg/kg i.v., after 45 minutes, n=5) of the same molecule?
The value was 63.3 ± 17.0%.

What about the “Percentage inhibition of coughing, MW ± SE” value ([1]; 8.0 mg/kg i.v., after 5 minutes, n=3) of the same molecule?
Its value is 44.4 ± 29.4%.

What about the “Percentage inhibition of coughing, MW ± SE” value ([1]; 8.0 mg/kg i.v., after 25 minutes, n=3) of the same molecule?
Its value is 50.0 ± 25.5%.

What about the “Percentage inhibition of coughing, MW ± SE” value ([1]; 8.0 mg/kg i.v., after 45 minutes, n=3) of the same molecule?
Its value is 44.4 ± 20.0%.

And the ED50 ([1]; 5 min, 5 minutes after administration)?
Its ED50 is 2.6 mg/kg.

What about the ED50 ([1]; 25 min, 25 minutes after administration) of the same molecule?
Its ED50 is 2.4 mg/kg.

And the ED50 ([1]; 0.75 h, 45 minutes after administration)?
Its ED50 is 3.2 mg/kg.

What about the “effect on the number of mechanically provoked coughs” value ([1]; intravenously, 0.5 to 8 mg/kg) of the same molecule?
Its value is “reducing the number of mechanically provoked coughs”.

And the “cough-suppressing effect, doses and testing times at which observed” value ([1]; intravenously, 0.5 to 8 mg/kg, 5, 25 and 45 minutes)?
Its value is “observed from the lowest administered dose upwards, at every testing time”.

What about the “inhibition of 3H-diprenorphine binding” value [2] of the same molecule?
Its value is “no inhibition”.
